Consider one compound from US6376429B1, “Benzoylcyclohexanediones, process for their preparation and their use as herbicides and plant growth regulators” (Hoechst Schering AgrEvo GmbH, priority 1998, dated 2002).

This assay deals with Sinapis arvensis. Kind of assay: Weed action preemergence. The class given is in vivo. To be noted: dose of 1 kg of active substance or less per hectare, visual assessment after 3 to 4 weeks vs untreated controls. From the text:
Seeds of mono- and dicotyledonous weed plants are put into sandy loam soil in cardboard pots and covered with soil. The compounds according to the invention in the form of wettable powders or emulsion concentrates are then applied to the surface of the covering soil as an aqueous suspension or emulsion with a water application rate of 600 to 800 l/ha after conversion in a dose of 1 kg of active substance or less per hectare after conversion. After the treatment, the pots are placed in a greenhouse and kept under good growth conditions for the weeds. The visual assessment of the plants or emergence damage is carried out after the emergence of the test plants after a test period of 3 to 4 weeks in comparison with untreated controls. In this case, for example, the compounds of Example Nos. 5, 33 and 19 show an at least 80% action against Stellaria media, Lolium multiflorum and Amaranthus retroflexus. The compounds of Example Nos. 2 and 8 show an at least 90% action against Amaranthus retroflexus, Stellaria media and Setaria viridis. The compounds of Example Nos. 2 and 18 show a 100% action against Amaranthus retroflexus and Sinapis arvensis.

Turning to `CS(=O)(=O)c1ccc(C(=O)C2C(=O)CCCC2=O)c(Cl)c1COc1ccccc1` [Example 2, 2-(2-chloro-4-methylsulfonyl-3-phenoxymethylbenzoyl)cyclohexane-1,3-dione], the “action against Sinapis arvensis” value is given as 100%.
